Series [1] deals with A549 cells. The experiment in a line: Cellular uptake of TPD-Rhein in the presence of transporter inhibitors. Format: cell-based, human. As to conditions: A549 cells preincubated 1 h with inhibitor 189 μM, then TPD-Rhein 18.9 μM 1 h; vs control without inhibitor. As for the experimental part: The A549 cells were seeded in 6-well culture plates (5 × 10^5 cells/well). On the second day, cells were incubated with Rhein or TPD-Rhein solution at increasing concentrations (4.7, 9.3, 18.9 and 37.4 μM, respectively, equivalent to Rhein) at 37 °C for 1 h. Cells were rinsed three times with ice-cold PBS and collected for the determination of intracellular concentration. To explore the cell delivery mechanism of TPD, the cells were precubated with indicated inhibitors for 1 h and then incubated with TPD-Rhein (18.9 μM) for another 1 h. For energy depletion, cells were exposed to Rhein or TPD-Rhein (18.9 μM) for 0.5 h at 37 °C, 4 °C, or in the presence of NaN3 (1 mg/mL) for 1 h. Lysine and L-arginine were substrates of basic amino acid transporters (Zhou et al., [2016]). Pyrilamine was used to indicate pyrilamine-sensitive transporter (Okura et al., [2008]). Spermine and Spermidine were inhibitors of the alkaline polyamine transporter (Grancara et al., [2014]). […] Choline was a substrate of choline transport system (Taguchi et al., [2014]). TPD was performed as a competitive cationic inhibitor. The inhibitor concentrations were 10-fold (189 μM) of the concentration of TPD-Rhein. In the end, cells were rinsed three times with ice-cold PBS and the intracellular concentrations of Rhein or TPD-Rhein were measured by LC-MS/MS. Cellular uptake was expressed as the amount (nmol/L) of Rhein or TPD-Rhein per 1 mg of total cellular protein. The total protein concentration of cell lysates was measured using the BCA protein assay kit (Pierce, Appleton, WI).

Series [2] concerns Hela cells. The experiment in a line: Cell uptake in Hela cells. Format: cell-based, human. From the text: (§1) Male Wistar rats (body weight: 200 ± 20 g) were supplied by the Experimental Animal Center of Zhengzhou University (Zhengzhou, China). Rats were maintained in a germ-free environment and allowed free access to food and water for at least one week before experiments. All animal experiments were approved by the Institutional Animal Care and Ethics Committee of Zhengzhou University, according to the requirements of the National Act on the use of experimental animals (PR China). A549 cells (human pulmonary alveolar epithelial cells), L929 cells (mouse fibroblast cells), and Hela cells (human carcinoma cervical cells) were obtained from ATCC (Manassas, VA). The cells were cultured in DMEM with high glucose (GIBCO, Big Cabin, OK) supplemented with 20% fetal bovine serum and 1% penicillin/streptomycin. Routinely, cells were maintained at 37 °C in a humidified atmosphere containing 5% CO2, and the cell medium was changed every other day. The A549 cells were seeded in 6-well culture plates (5 × 10^5 cells/well). […] In the end, cells were rinsed three times with ice-cold PBS and the intracellular concentrations of Rhein or TPD-Rhein were measured by LC-MS/MS. Cellular uptake was expressed as the amount (nmol/L) of Rhein or TPD-Rhein per 1 mg of total cellular protein. The total protein concentration of cell lysates was measured using the BCA protein assay kit (Pierce, Appleton, WI).

Series [3] deals with A549 cells. The series can be described thus: Cell uptake study in A549 cells (LC-MS/MS). Format: cell-based, human. Conditions: 18.9 μM, NaN3 1 mg/mL. As for the experimental part:
The A549 cells were seeded in 6-well culture plates (5 × 10^5 cells/well). On the second day, cells were incubated with Rhein or TPD-Rhein solution at increasing concentrations (4.7, 9.3, 18.9 and 37.4 μM, respectively, equivalent to Rhein) at 37 °C for 1 h. Cells were rinsed three times with ice-cold PBS and collected for the determination of intracellular concentration. To explore the cell delivery mechanism of TPD, the cells were precubated with indicated inhibitors for 1 h and then incubated with TPD-Rhein (18.9 μM) for another 1 h. For energy depletion, cells were exposed to Rhein or TPD-Rhein (18.9 μM) for 0.5 h at 37 °C, 4 °C, or in the presence of NaN3 (1 mg/mL) for 1 h. Lysine and L-arginine were substrates of basic amino acid transporters (Zhou et al., [2016]). Pyrilamine was used to indicate pyrilamine-sensitive transporter (Okura et al., [2008]). Spermine and Spermidine were inhibitors of the alkaline polyamine transporter (Grancara et al., [2014]). […] In the end, cells were rinsed three times with ice-cold PBS and the intracellular concentrations of Rhein or TPD-Rhein were measured by LC-MS/MS. Cellular uptake was expressed as the amount (nmol/L) of Rhein or TPD-Rhein per 1 mg of total cellular protein. The total protein concentration of cell lysates was measured using the BCA protein assay kit (Pierce, Appleton, WI).

Series [4] can be described thus: Plasma pharmacokinetics after i.v. injection. The series is classed as in vivo. As to conditions: rat, iv, rats, 10 mg/kg Rhein equivalent. As for the experimental part: Rhein or TPD-Rhein was injected through the tail vein of rats. For each preparation and sampling time point, five rats were treated with a single dose of Rhein at the dose of 10 mg/kg or TPD-Rhein at 17.2 mg/kg (dose equivalent to 10 mg/kg Rhein), respectively. The rats were scarified at predetermined time intervals (0.083, 0.25, 0.5, 1, 2, 4, 8, 16, and 24 h) after administration. The whole blood was quickly collected into heparinized tubes and centrifuged at 5000 rpm for 5 min to obtain plasma. Then, the tissues (heart, liver, spleen, lung, kidney, and brain) were rinsed with saline, weighed and homogenized with cold physiological saline (twice the weight of tissues). For Rhein treated rats, the content of Rhein in the homogenates was measured by LC-MS/MS. For TPD-Rhein treated rats, the samples were injected to LC-MS/MS to determine the concentration of free Rhein released and TPD-Rhein, respectively. The content of TPD-Rhein in tested tissues at different time point was the sum of TPD-Rhein and free Rhein released. The biodistribution of the two drugs in each organ was normalized by the weight of the selected tissue.
The pharmacokinetic data were calculated using the DAS software version 2.0 (Mathematical Pharmacology Professional Committee of China, Shanghai, China). The relative uptake efficiency (Re) and concentration efficiency (Ce) were used to evaluate the lung-targeting properties of TPD-Rhein. The values of Re and Ce were calculated as follows: Relung=(AUC0-t, lung)TPD-Rhein/(AUC0-t, lung)Rhein Celung=(Cmax, lung)TPD-Rhein/(Cmax, lung)Rhein

In series [5] the test system is L929 cells. The series can be described thus: Cell uptake in L929 cells. The series is classed as cell-based, mouse.
Excerpt: as §1

Series [6] concerns OVA-induced asthma model in rats. The experiment in a line: Therapeutic effect on ovalbumin-induced asthma model. Format: in vivo, rat. Conditions: OVA-challenged asthmatic rats, i.v. Rhein 4.5 mg/kg/day or TPD-Rhein 7.7 mg/kg/day. As for the experimental part:
Wistar rats were used to evaluate the efficacy of Rhein and TPD-Rhein on asthma. Forty healthy male rats (200 ± 20 g) were randomly divided into four groups (n = 10). Asthma model in rats was established according to a previously reported method with slight modifications (Lu et al., [2015]). Briefly, on day 0, rats were systemically sensitized with an intraperitoneal injection with 1 mL of 10% ovalbumin (OVA). Two weeks after the sensitization, the rats were exposed to aerosolized OVA for 30 min of cycling three times per week for 14 weeks. The concentration of OVA was increased from 2% for 8 weeks to 4% for remaining 6 weeks to maintain the asthma condition. From weeks 3–16, the OVA-sensitized rats in the treatment groups were given normal saline, Rhein, or TPD-Rhein intravenously before OVA inhalation, at doses of 4.5 mg/kg/day for Rhein and 7.7 mg/kg/day for TPD-Rhein (dose equivalent to free drug treatment), respectively. The rats in the normal group received with the same volume of normal saline instead. One day after the last ultrasonic atomization, all rats were anesthetized by 3% sodium pentobarbital solution at a dose of 45 mg/kg. Then, 0.5 mL of intracardiac blood of each rat was collected. The histamine level and Interleukin-5 (IL-5) level in the supernatant serum were determined using Rat HIS ELISA kit (R&D Company, Minneapolis, MN) and Rat IL-5 ELISA Kit (R&D Company, Minneapolis, MN) according to the manufacturer’s instructions, respectively. Lungs were removed from sacrificed rats and lavaged to determine the IL-5 level using the corresponding kit. In the end, lungs were fixed in 4% buffered formalin, paraffin embedded and sectioned for hematoxylin and eosin staining (H&E) for conventional histological analysis.

Series [7] can be described thus: Aqueous solubility in PBS. The series is classed as physicochemical. Conditions: 25 °C, thermodynamic from solid. As for the experimental part:
The solubilities of Rhein and TPD-Rhein were determined in PBS with varying pH values (pH = 2 and 7.4) by equilibrating an excess of solid compound in 5 mL of buffer at 25 °C for 12 h. The samples were filtered through a 0.22 µm Millipore filter, diluted in methanol, and analyzed by LC-MS/MS. The chemical and enzymatic stabilities of TPD-Rhein were assessed in PBS with varying pH values (pH = 2, 4.5, 6.8, and 7.4), freshly prepared rat plasma and lung homogenates (diluted with 0.9% physiological saline) from rats at 37 °C, respectively. At predetermined time intervals, samples were immediately diluted by an equal amount of methanol to precipitate protein, vortexed for 5 min and centrifuged at 13,000 rpm for 10 min. The supernatant was then subjected to LC-MS/MS. Stability studies were performed in triplicate.

Series [8] is described as follows: In vitro cytotoxicity, MTT assay. Format: cell-based. Conditions: human, A549 cells, under tested concentrations, read-out: A549 cells remaining viable. As for the experimental part:
To evaluate the in vitro cytotoxicity of Rhein and TPD-Rhein, MTT (3-(4, 5-dimethylthiazol-2-yl)-2, 5-diphenyltetrazolium bromide) assays were performed using A549 cell lines. Briefly, A549 cells were seeded in 96-well culture plates at a density of 1 × 10^4 cells/well and incubated at 37 °C for two days. On the day of administration, the cells were treated with different concentrations of Rhein solution, TPD-Rhein solution or TPD solution (dispersed in serum-free culture medium) for 4 h. An aliquot of 20 μL MTT solution (5 mg/mL) were added into each well and incubated at 37 °C for another 4 h. After that, all medium was removed and cells were rinsed with phosphate-buffered saline (PBS), and the formed dark blue formazan crystals in each well were dissolved in 150 μL DMSO. The absorbance of each individual well was read on a microplate reader (Thermo Scientific, Waltham, MA, Varioskan Flash) at 570 nm wavelength. Cells not exposed to samples were used as control (=100% viability).

The structures appear in SMILES notation. Converted amounts (≈) assume the structure as drawn.

As for `N=C(N)NCCC[C@H](N)C(=O)O` [L-arginine], the “effect of inhibitor on cellular uptake of TPD-Rhein” value (“effect of inhibitor” for short) in series [1] is listed as “no obvious impact”.
Turning to `C[N+](C)(C)C[C@H](O)CC(=O)[O-]` [L-carnitine], in series [1], the “effect of inhibitor” value is “no obvious impact”.
For `NCCCC[C@H](N)C(=O)O` [L-lysine], the “effect of inhibitor” value in series [1] is given as “no obvious impact”.
What is called AUC(0-t) is the area under the concentration-time curve up to a stated or last time point. One may read the Cmax as the highest concentration seen after dosing. By solubility is commonly meant how much of the substance goes into solution per volume. For the compound `O=C(O)c1cc(O)c2c(c1)C(=O)c1cccc(O)c1C2=O` [Rhein, 4,5-dihydroxyanthraquinone-2-carboxylic acid], the “uptake compared with A549 cells” value in series [2] and in series [5] was “slight decrease” each time. Also, the “intracellular amount at 4 °C or in the presence of NaN3 versus 37 °C” value in series [3] was “no substantial difference”. Also, in series [4], the AUC(0-t) came out at 206 ± 10.6 µM·h. In series [4], the Cmax is 308 ± 3.89 µM. In addition, the clearance in series [4] (read-out: CLZ (converted)) is 2.83 mL/min/kg. Further, the Vd in series [4] (read-out: VZ) worked out at 0.47 ± 0.02 L/kg. Further, the “bronchoalveolar lavage fluid IL-5 level” value in series [6] (vs asthmatic model group) is listed as “no significant differences”. The “plasma (serum) IL-5 level” value in series [6] (vs asthmatic model group) is “no significant differences”. Further, the “lung histology (H&E)” value in series [6] (vs asthmatic model rats) is listed as “no significant improved anti-asthma efficacy”. Moreover, the solubility at 12 h in series [7] (pH 2, aqueous buffer, PBS pH 2.0, 25 °C) was 3.56 ± 0.2 µg/mL (≈ 12.5 µM); in series [7] (pH 7.4, aqueous buffer, PBS pH 7.4, 25 °C), 513 ± 32 µg/mL (≈ 1800 µM).
In the case of `CN(C)CCCN(C)Cc1ccc(O)cc1` [TPD, N,N,N’-trimethyl-N’-(4-hydroxyl-benzyl)-1,3-propanediamine], the viability at 4 h in series [8] was > 90%. In series [1], the “effect of inhibitor” value is “abolish”.
Turning to `CC[N+](CC)(CC)CC.[Cl-]` [Tetraethylammonium (TEA) chloride], the “effect of inhibitor” value in series [1] is “significantly reduced”.
For the compound `C[N+](C)(C)CCO` [choline], in series [1], the “effect of inhibitor” value is listed as “no obvious impact”.
In the case of `CN(C)CCCN1c2ccccc2CCc2ccccc21` [imipramine], the “effect of inhibitor” value in series [1] was “significantly reduced”.
In the case of `COc1ccc(CN(CCN(C)C)c2ccccn2)cc1` [pyrilamine], the “effect of inhibitor” value in series [1] is “no obvious impact”.
For `NCCCCNCCCN` [spermidine], in series [1], the “effect of inhibitor” value is listed as “no obvious impact”.
Take `NCCCNCCCCNCCCN` [spermine]: the “effect of inhibitor” value in series [1] was “no obvious impact”.

For the origin of these results see PMC6058525, “A novel phenolic propanediamine moiety-based lung-targeting therapy for asthma” (Drug Delivery, 2018).
